Values quoted from earlier work as cited in PubChem BioAssay AID1259409 (Chemical Carcinogenesis Research Information System (CCRIS), 2018).

Tested on: rodent chemically induced tumor inhibition, incidence and multiplicity
Assay: CCRIS tumor inhibitor studies
Conditions: Carcinogen: 7,12-DIMETHYLBENZ[A]ANTHRACENE, 57-97-6, Route [Inhibitor]: ORAL, Promoter: NONE USED

SMILES: O=[Se](O)O
- tumour outcome (control, treated, inhibition, significance) (Dose [Inhibitor]: 0, 0.5 UG/G IN DIET BEGINNING 2 WK PRIOR TO CARCINOGEN DOSE AND CONTINUING FOR 2 WK POST CARCINOGEN DOSE FOLLOWED BY BAS, Species: RAT, Strain/Sex: SPRAGUE-DAWLEY/FEMALE, Target Tissue: Type of Lesion: MAMMARY GLAND: TUMOR, Dose [Carcinogen]: 5 MG/KG): 52%, 32%, 38%, not calculated
- tumour outcome (control, treated, inhibition, significance) (Dose [Inhibitor]: 0, 1 UG/G IN DIET BEGINNING 2 WK PRIOR TO CARCINOGEN DOSE AND CONTINUING FOR 2 WK POST CARCINOGEN DOSE FOLLOWED BY BASAL, Species: RAT, Strain/Sex: SPRAGUE-DAWLEY/FEMALE, Target Tissue: Type of Lesion: MAMMARY GLAND: TUMOR, Dose [Carcinogen]: 5 MG/KG): 52%, 24%, 54%, not calculated
- tumour outcome (control, treated, inhibition, significance) (Dose [Inhibitor]: 0, 2 PPM (AS SELENIUM) IN DIET BEGINNING 2 WK PRIOR TO CARCINOGEN DOSE AND CONTINUING FOR DURATION OF STUDY (STUDY DURAT, Species: RAT, Strain/Sex: SPRAGUE-DAWLEY/FEMALE, Target Tissue: Type of Lesion: MAMMARY GLAND: ADENOCARCINOMA, Dose [Carcinogen]: 10 MG ONCE AT 55 D OF AGE): 88%, 72%, 18%, not significant
- tumour outcome (control, treated, inhibition, significance) (Dose [Inhibitor]: 0, 2 UG/G IN DIET BEGINNING 2 WK PRIOR TO CARCINOGEN DOSE AND CONTINUING FOR 2 WK POST CARCINOGEN DOSE FOLLOWED BY BASAL, Species: RAT, Strain/Sex: SPRAGUE-DAWLEY/FEMALE, Target Tissue: Type of Lesion: MAMMARY GLAND: TUMOR, Dose [Carcinogen]: 5 MG/KG): 52%, 14%, 73%, not calculated
- tumour outcome (control, treated, inhibition, significance) (Dose [Inhibitor]: 0, 2.5 MG/KG IN DIET TO ANIMALS ON VITAMIN E ADEQUATE DIETS (50 MG/KG) (STUDY DURATION: 20 WK), Species: RAT, Strain/Sex: SPRAGUE-DAWLEY/FEMALE, Target Tissue: Type of Lesion: MAMMARY GLAND: TUMOR, Dose [Carcinogen]: 5 MG ONCE AT 50 D OF AGE): 19/25 (76%), 10/25 (40%), 47%, not calculated
- tumour outcome (control, treated, inhibition, significance) (Dose [Inhibitor]: 0, 2.5 MG/KG IN DIET TO ANIMALS ON VITAMIN E DEFICIENT DIETS (10 MG/KG) (STUDY DURATION: 20 WK), Species: RAT, Strain/Sex: SPRAGUE-DAWLEY/FEMALE, Target Tissue: Type of Lesion: MAMMARY GLAND: TUMOR, Dose [Carcinogen]: 5 MG ONCE AT 50 D AGE): 21/25 (84%), 17/25 (68%), 19%, not calculated
- tumour outcome (control, treated, inhibition, significance) (Dose [Inhibitor]: 0, 3 PPM (AS SELENIUM) IN DIET BEGINNING 2 WK PRIOR TO CARCINOGEN DOSE AND CONTINUING FOR DURATION OF STUDY (STUDY DURAT, Species: RAT, Strain/Sex: SPRAGUE-DAWLEY/FEMALE, Target Tissue: Type of Lesion: MAMMARY GLAND: ADENOCARCINOMA, Dose [Carcinogen]: 10 MG ONCE AT 55 D OF AGE): 88%, 52%, 41%, p<0.05
- tumour outcome (control, treated, inhibition, significance) (Dose [Inhibitor]: 0, 3 UG/ML IN DRINKING WATER FROM 40-90 D OF AGE THEN 0, 2 UG/ML FROM 90-180 D OF AGE AND 0, 1 UG/ML FROM 180-240 D OF A, Dose [Inhibitor]: 0, 3 UG/ML IN DRINKING WATER FROM 40-90 D OF AGE THEN 0, 2 UG/ML FROM 90-180 D OF AGE AND 0, 1 UG/ML FROM 180-240 D OF A, Species: RAT, Strain/Sex: SPRAGUE DAWLEY/FEMALE, Target Tissue: Type of Lesion: MAMMARY GLAND: ADENOCARCINOMA, FIBROADENOMA, Dose [Carcinogen]: 5 MG IN 0.2 ML SESAME OIL 1/2 D FOR 12 D BEGINNING AT 50 D OF AGE): 100%, 52%, 48%, p<0.001
- tumour outcome (control, treated, inhibition, significance) (Dose [Inhibitor]: 0, 4 PPM IN DRINKING WATER BEGINNING 2 WK PRIOR TO CARCINOGEN DOSE AND CONTINUING FOR 1 WK POST CARCINOGEN DOSE (STUDY D, Species: RAT, Strain/Sex: SPRAGUE-DAWLEY/FEMALE, Target Tissue: Type of Lesion: MAMMARY GLAND: TUMOR, Dose [Carcinogen]: 10 MG IN 1 ML OLIVE OIL ONCE AT 7 WK OF AGE): 19/21 (91%), 19/21 (91%), 0%
- tumour outcome (control, treated, inhibition, significance) (Dose [Inhibitor]: 0, 4 UG/G IN DIET BEGINNING 2 WK PRIOR TO CARCINOGEN DOSE AND CONTINUING FOR 2 WK POST CARCINOGEN DOSE FOLLOWED BY BASAL, Species: RAT, Strain/Sex: SPRAGUE-DAWLEY/FEMALE, Target Tissue: Type of Lesion: MAMMARY GLAND: TUMOR, Dose [Carcinogen]: 5 MG/KG): 52%, 10%, 81%, not calculated
- tumour outcome (control, treated, inhibition, significance) (Dose [Inhibitor]: 0, 4 UG/G IN DIET BEGINNING 2 WK PRIOR TO CARCINOGEN DOSE AND CONTINUING FOR DURATION OF STUDY (STUDY DURATION: 43 WK), Species: RAT, Strain/Sex: SPRAGUE-DAWLEY/FEMALE, Target Tissue: Type of Lesion: MAMMARY GLAND: TUMOR, Dose [Carcinogen]: 5 MG/KG): 52%, 5%, 90%, not calculated
- tumour outcome (control, treated, inhibition, significance) (Dose [Inhibitor]: 0.2, 2 PPM IN DIET BEGINNING 3 D PRIOR TO CARCINOGEN DOSE AND CONTINUING FOR 8 MO (STUDY DURATION: 8 MO), Species: MOUSE, Strain/Sex: BALB/FEMALE, Target Tissue: Type of Lesion: MAMMARY GLAND: ADENOCARCINOMA, Dose [Carcinogen]: 1 MG/WK FOR 6 WK): 12/31 (39%), 4/34 (12%), 69%, p<0.025
- tumour outcome (control, treated, inhibition, significance) (Dose [Inhibitor]: 0.5 PPM IN 5% CORN OIL DIET DAILY STARTING 29 D BEFORE CARCINOGEN TREATMENT AND CONTINUING FOR DURATION OF STUDY (STUDY, Species: RAT, Strain/Sex: SPRAGUE-DAWLEY/FEMALE, Target Tissue: Type of Lesion: MAMMARY GLAND: ADENOCARCINOMA, Dose [Carcinogen]: 5 MG IN CORN OIL ONCE AT 50 D OF AGE): 12/30 (40%), 11/30 (37%), 8%, not significant
- tumour outcome (control, treated, inhibition, significance) (Dose [Inhibitor]: 0.5 PPM IN 25% CORN OIL DIET DAILY STARTING 29 D BEFORE CARCINOGEN TREATMENT AND CONTINUING FOR DURATION OF STUDY (STUDY, Species: RAT, Strain/Sex: SPRAGUE-DAWLEY/FEMALE, Target Tissue: Type of Lesion: MAMMARY GLAND: ADENOCARCINOMA, Dose [Carcinogen]: 5 MG IN CORN OIL ONCE AT 50 D OF AGE): 21/30 (70%), 20/29 (69%), 1%, not significant
- tumour outcome (control, treated, inhibition, significance) (Dose [Inhibitor]: 0.5 PPM IN DIET DAILY STARTING 1 WK PRIOR TO CARCINOGEN TREATMENT AND CONTINUING FOR DURATION OF STUDY (STUDY DURATION:, Species: MOUSE, Strain/Sex: BD2F1/FEMALE, Target Tissue: Type of Lesion: MAMMARY GLAND: TUMOR, Dose [Carcinogen]: 1 MG IN 0.2 ML COTTONSEED OIL 1/WK FOR 6 WK STARTING AT 8 WK OF AGE): 18/32 (56%), 10/33 (30%), 46%, not calculated
